Reference: paper PMC8298522 (Scientific Reports, 2021)

System: insulin-positive and insulin-negative pancreatic tumors
Type: in vivo
Details: [^68Ga]DOTATOC PET/CT, scan 30 min after injection
Protocol: PET scans were performed after 30 min of injection of the labeled substance via tail vein (10 MBq/mouse) under 2.0% isoflurane anesthesia using a Triumph LabPET12/SPECT4/CT (TriFoil Imaging Inc., Chatsworth, CA, USA)[41].
After completion of the PET/CT procedures, mice were sacrificed by cervical dislocation, followed by immediate resection of the pancreas. Tissues were spread on filter paper and immediately fixed in 10% formalin at 4 °C. For the analysis of pancreatic tumors, serial formalin-fixed paraffin-embedded sections (4-μm thickness) were stained with anti-insulin and anti-glucagon antibody, as previously reported[39]. Briefly, primary rabbit polyclonal antibody was used for insulin detection at an antibody dilution of 1:100 (Cat# sc-9168; Santa Cruz Biotechnology, USA) and a mouse monoclonal antibody glucagon detection at an antibody dilution of 1:100 (Cat# ab10988; Abcam, USA). The secondary antibodies utilized for the assay were Alexa Fluor 488 goat anti-rabbit antibody at 1:200 dilution (Cat# A-11008; Thermo Fisher Scientific, USA) and Alexa Fluor 546 goat anti-mouse antibody at 1:200 dilution (Cat# A-11030; Thermo Fisher Scientific, USA), respectively. The slides were prepared for analyses under a fluorescence microscope (BZ-X700; Keyence, Osaka, Japan).

SMILES: C[C@@H](O)[C@@H]1NC(=O)[C@H](CCCCN)NC(=O)[C@@H](Cc2c[nH]c3ccccc23)NC(=O)[C@H](Cc2ccc(O)cc2)NC(=O)[C@@H](NC(=O)[C@@H](Cc2ccccc2)NC(=O)CN2CCN(CC(=O)[O-])CCN(CC(=O)[O-])CCN(CC(=O)[O-])CC2)CSSC[C@@H](C(=O)N[C@H](CO)[C@@H](C)O)NC1=O.[68Ga+3] [[^68Ga]DOTATOC, ^68Ga-labeled 1,4,7,10-tetraazacyclododecane-N,N′,N″,N″-tetraacetic acid-d-Phe^1-Tyr^3-octreotide]
- Specificity for detecting insulin-positive tumors: 0%
